Test results as given in patent publication US20100234438A1, “THERAPEUTIC AGENTS” (priority 2006, published 2010).
pIC50: −log10 of the molar value.

Target: T1, CB1 receptor (Homo sapiens, UniProt P21554)
T1 construct: expressed in transfected cells
Assay: [35S]-GTPγS binding assay on membranes from cells stably transfected with the CB1 gene, inhibition of agonist CP55940 (EC80)
Type: biochemical
Details: half maximal inhibition of GTPγS binding in presence of EC80 concentration of CP55940; 30° C., 45 min
Procedure: The compound of the present invention is active against the receptor product of the CB1 gene. The affinity of the compounds of the invention for central cannabinoid receptors is demonstrable in methods described in Devane et al, Molecular Pharmacology, 1988, 34,605 or those described in WO01/70700 or EP 656354. Alternatively the assay may be performed as follows.
10 μg of membranes prepared from cells stably transfected with the CB1 gene were suspended in 200 μl of 100 mM NaCl, 5 mM MgCl2, 1 mM EDTA, 50 mM HEPES (pH 7.4), 1 mM DTT, 0.1% BSA and 100 μM GDP. To this was added an EC80 concentration of agonist (CP55940), the required concentration of test compound and 0.1 μCi [^35S]-GTPγS. The reaction was allowed to proceed at 30° C. for 45 min. […] Filters were then covered with scintilant and counted for the amount of [^35S]-GTPγS retained by the filter.
Activity is measured in the absence of all ligands (minimum activity) or in the presence of an EC80 concentration of CP55940 (maximum activity). […] At various concentrations of novel ligand, activity is calculated as a percentage of the maximum activity and plotted. The data are fitted using the equation y=A+((B−A)/1+((C/x) ÙD)) and the IC50 value determined as the concentration required to give half maximal inhibition of GTPγS binding under the conditions used.

T1 sequence (P21554 whole entry): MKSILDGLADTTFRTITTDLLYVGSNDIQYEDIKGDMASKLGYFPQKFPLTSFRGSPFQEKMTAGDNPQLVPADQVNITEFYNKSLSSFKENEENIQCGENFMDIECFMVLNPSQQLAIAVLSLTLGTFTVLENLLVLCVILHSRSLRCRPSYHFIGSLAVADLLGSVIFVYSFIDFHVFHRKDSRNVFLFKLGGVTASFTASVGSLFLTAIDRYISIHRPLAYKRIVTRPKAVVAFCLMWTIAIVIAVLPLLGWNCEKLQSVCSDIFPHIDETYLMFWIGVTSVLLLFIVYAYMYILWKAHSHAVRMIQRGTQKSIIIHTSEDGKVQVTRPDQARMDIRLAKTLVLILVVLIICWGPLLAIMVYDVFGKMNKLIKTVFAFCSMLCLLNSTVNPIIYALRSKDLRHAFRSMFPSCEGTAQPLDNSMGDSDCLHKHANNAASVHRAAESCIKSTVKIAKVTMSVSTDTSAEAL

O=C(N[C@@H]1CCCC[C@@H]1O)c1nn(-c2ccc(Cl)cc2Cl)c(-c2ccc(OS(=O)(=O)CCC(F)(F)F)cc2)c1CO (single isomer, unassigned) [Example 1, (−)3,3,3-Trifluoro-propane-1-sulfonic acid 4-[2-(2,4-dichloro-phenyl)-5-(2-hydroxy-cyclohexylcarbamoyl)-4-hydroxymethyl-2H-pyrazol-3-yl]-phenyl ester]
pIC50: 8.64
